Data as given in patent US20200102349A1, “PEPTIDE REAGENTS AND METHODS FOR DETECTION AND TARGETING OF DYSPLASIA, EARLY CANCER AND CANCER” (THE REGENTS OF THE UNIVERSITY OF MICHIGAN, priority 2014, published 2020).

Test system: HT29 cells
Assay: Apparent dissociation constant on flow cytometry
Type: binding, human
Settings: 4° C., 1 hour
Experimental: We measured the apparent dissociation constant of the peptide to HT29 cells as an assessment of binding affinity. QRH*-Cy5.5 was serially diluted in PBS at concentrations of 0, 10, 25, 50, 75, 100, 125, 150 and 200 nM. HT29 cells (˜10^5) were incubated with QRH*-Cy5.5 at 4° C. for 1 hour, washed with cold PBS, and the mean fluorescence intensities were measured on flow cytometry. The equilibrium dissociation constant kd=1/ka was calculated by performing a least squares fit of the data to the non-linear equation […]. I0 and Imax are the initial and maximum fluorescence intensities, corresponding to no peptide and at saturation, respectively, and [X] represents the concentration of the bound peptide [Thomas et al., Clin Exp Metastasis, 26:105-119 (2009)]. Origin 6.1 data analysis software (OriginLab Corp) was used to calculate kd.

Work on “QRHKPRE (SEQ ID NO: 1) with Cy5.5 fluorophore attached via a GGGSK linker (SEQ ID NO: 18) on the C-terminus [QRH*-Cy5.5]” yielded a Kd of 50 nM.
